One test relates to E. coli. In words: Radial diffusion assay (RDA), low-salt conditions. Type of test: cell-based. Conditions: 6 µl per well (3.6 µg protein), not digested with neutrophil elastase. Here is the method: Figure 1 Generation of antimicrobial peptides by degradation of prothrombin and thrombin. (A) Degradation of the proteins was performed at 37°C for the indicated time periods. RDA was performed in low-salt conditions using E. coli as test organism. Each 4 mm-diameter well was loaded with 6 µl of the solution (corresponding to 3.6 µg protein). The bar diagrams indicate the diameter of the zones of clearance obtained (in mm). The inset visualizes the results obtained with prothrombin. C, buffer; NE, neutrophil elastase only. LL-37 (100 µM) was included for comparison. (B) Intact prothrombin (PT) and thrombin (T), and cleavage products from the different incubations with neutrophil elastase (NE, indicated above) were analyzed by SDS-PAGE (16.5% Tris-Tricine gel). The gels are overloaded (12 µg) in order to visualize generation of fragments of low molecular masses. Rightmost two lanes show PT and T proteins at 2 µg.
Figure 2 Activities of peptides derived from prothrombin. (A) Sequence of prothrombin and overlapping peptides (indicated by numbers). In addition to the regular overlapping peptides, peptide regions of high net charge, and/or content of predicted helical regions (Agadir; http://www.embl-heidelberg.de/Services/serrano/agadir/agadir-start.html) were selected. […] (B) Overlapping peptides of prothrombin were analyzed for antimicrobial activities against E. coli. […]

Test [1] is described as follows: Liposome leakage assay (carboxyfluorescein release).
Method: (E) Effects of the indicated peptides on liposome leakage. The membrane permeabilizing effect was recorded by measuring fluorescence release of carboxyfluorescein from PA (negatively charged) liposomes. The experiments were performed in 10 mM Tris-buffer, in absence and presence of 0.15 M NaCl. Values represents mean of triplicate samples.
Dry lipid films were prepared by dissolving either dioleoylphosphatidylethanolamine (Avanti Polar Lipids, Alabaster, AL) (70 mol%) and dioleoylphosphatidylglycerol (30 mol%) in chloroform, and then removing the solvent by evaporation under vacuum overnight. Subsequently, buffer solution containing 10 mM Tris, pH 7.4, either with or without additional 150 mM NaCl, was added together with 0.1 M carboxyfluorescein (CF) (Sigma). After hydration, the lipid mixture was subjected to eight freeze-thaw cycles consisting of freezing in liquid nitrogen and heating to 60°C. Unilamellar liposomes with a diameter of about 130 nm (as found with cryo-TEM; results not shown) were generated by multiple extrusions through polycarbonate filters (pore size 100 nm) mounted in a LipoFast miniextruder (Avestin). Untrapped carboxyfluorescein was then removed by filtration through two subsequent Sephadex G-50 columns with the relevant Tris buffer as eluent. […] The CF release was monitored by fluorescence at 520 nm from a liposome dispersion (10 mM lipid in 10 mM Tris pH 7.4). […]
For test [2], the system named is E. coli ATCC 25922. The test is described as follows: Viable count assay. Type of test: cell-based. Conditions: E. coli ATCC 25922 2×10^6 cfu/ml, 50 µl, 10 mM Tris pH 7.4 with 5 mM glucose, 37°C 2 h; 3 and 6 µM.
Method: 2×10^6 cfu/ml of bacteria were incubated in 50 µl with proteins and peptides at a concentration of 3 and 6 µM, respectively.
E. coli ATCC 25922 bacteria were grown to mid-logarithmic phase in Todd-Hewitt (TH) medium. Bacteria were washed and re-suspended in 10 mM Tris, pH 7.4 containing 5 mM glucose. […] Serial dilutions of the incubation mixtures were plated on TH agar, followed by incubation at 37°C overnight and cfu determination.
Another test has as its system S. pyogenes AP1. In kind it is cell-based. Here is the method:
(§1) MIC assay was carried out by a microtiter broth dilution method as previously described in the NCSLA guidelines. Hemolysis, MTT, and LDH assays were performed as previously described (See Text S1).
(§2) MIC assay was carried out by a microtiter broth dilution method as previously described in the NCSLA guidelines (Wiegand, I., Hilpert, K. & Hancock, R.E. Agar and broth dilution methods to determine the minimal inhibitory concentration (MIC) of antimicrobial substances. Nat Protoc 3, 163-175 (2008)). In brief, fresh overnight colonies were suspended to a turbidity of 0.5 units and further diluted in Mueller-Hinton broth (Becton Dickinson). […] Ten µl of each concentration was added to each corresponding well of a 96-well microtiter plate (polypropylene, Costar Corp.) and 90 µl of bacteria (1x10^5) in MH medium added. The plate was incubated at 37 °C for 16-18 h. MIC was taken as the lowest concentration where no visual growth of bacteria was detected.
(§3) Table S2. […] The analysis was performed as described in Wiegand et al. and according to NCSLA guidelines. Additional clinical isolates were obtained from the Department of Bacteriology, Lund University Hospital. P. aeruginosa, E. coli and E. faecalis isolates were initially derived from patients with chronic ulcers, S. aureus from patients with atopic dermatitis. The S. pyogenes strain AP1 was from the WHO Collaborating Center for References and Research on Streptococci (Prague, Czech Republic).

Test [3] concerns S. aureus Clinical isolate 14312. In kind it is cell-based. As to the method: as §1, §2, §3
Test [4] deals with S. aureus Clinical isolate 1088. Type of test: cell-based. As to the method:
as §1, §2, §3

Test [5] concerns E. faecalis Clinical isolate 2374. In kind it is cell-based. As to the method: as §1, §2, §3
Test [6] deals with P. aeruginosa Clinical isolate 15159. In kind it is cell-based. Here is the method:
as §1, §2, §3

The subject of test [7] is P. aeruginosa Clinical isolate 18488. In kind it is cell-based. As to the method: as §1, §2, §3
Test [8] relates to P. aeruginosa Clinical isolate 13.2. Type of test: cell-based. As to the method: as §1, §2, §3
The subject of test [9] is E. coli Clinical isolate 47.1. Type of test: cell-based. As to the method: as §1, §2, §3
Test [10] has as its system S. aureus Clinical isolate 1086. Type of test: cell-based. Here is the method:
as §1, §2, §3

Test [11] relates to E. coli Clinical isolate 49.1. Type of test: cell-based. Here is the method:
as §1, §2, §3

The subject of test [12] is P. aeruginosa Clinical isolate 62.1. Type of test: cell-based. As to the method:
as §1, §2, §3

Test [13] concerns S. aureus Clinical isolate 16065. In kind it is cell-based. As to the method:
as §1, §2, §3

Test [14] deals with P. aeruginosa Clinical isolate 27.1. In kind it is cell-based. As to the method:
as §1, §2, §3

The test system of a further test is P. aeruginosa ATCC 27853. In kind it is cell-based. As to the method: as §1, §2, §3
The subject of test [15] is P. aeruginosa Clinical isolate 23.1. In kind it is cell-based. As to the method: as §1, §2, §3
Another test deals with S. aureus FDA 486. In kind it is cell-based. As to the method: as §1, §2, §3
Test [16] deals with P. aeruginosa Clinical isolate 10.5. In kind it is cell-based. As to the method: as §1, §2, §3
Test [17] has as its system S. aureus Clinical isolate 13430. In kind it is cell-based. As to the method:
as §1, §2, §3

In test [18] the test system is E. coli Clinical isolate 37.4. In kind it is cell-based. Here is the method:
as §1, §2, §3

Test [19] relates to S. aureus Clinical isolate 1090. Type of test: cell-based. Here is the method:
as §1, §2, §3

Test [20] relates to P. aeruginosa Clinical isolate 51.1. In kind it is cell-based. As to the method: as §1, §2, §3
The subject of test [21] is S. aureus Clinical isolate 18319. Type of test: cell-based. As to the method:
as §1, §2, §3

Test [22] concerns S. aureus Clinical isolate 18800. In kind it is cell-based. Here is the method: as §1, §2, §3
For the next test, the system named is S. aureus ATCC 29213. Type of test: cell-based. Here is the method: as §1, §2, §3
For test [23], the system named is E. coli ATCC 25922. In kind it is cell-based. As to the method:
as §1, §2, §3

The values that follow come from publication PMC2858699, “Proteolysis of Human Thrombin Generates Novel Host Defense Peptides” (PLoS Pathogens, 2010).

≈ marks a conversion by molar mass, not a printed value. Where a SMILES comes first, the peptide text is derived from it. Some results are limits rather than exact numbers.

Consider thrombin, for which the “antimicrobial activity in RDA, intact proteins” value in the test with E. coli is “inactive”.
Consider VFRLKKWIQKVIDQFGE [VFR17], for which the “leakage of liposomes (carboxyfluorescein release)” value in test [1] (negatively charged liposomes, 10 mM Tris pH 7.4, absence and presence of 0.15 M NaCl, triplicate) was “induced leakage of liposomes”. Also, the “time to reach ∼80% of the maximum leakage” value in [1] (peptide at 1 µM, data not shown) is at most 200 s. The “antibacterial activity in viable count assay” value in the test on E. coli ATCC 25922 [2] is on record as “significant antibacterial activity”.
As a reminder, the MIC is the lowest concentration that inhibits growth of the organism. For `CC[C@H](C)[C@H](N)C(=O)N[C@@H](CC(C)C)C(=O)N[C@@H](CCCNC(=N)N)C(=O)N[C@@H](Cc1c[nH]c2ccccc12)C(=O)N1CCC[C@H]1C(=O)N[C@@H](Cc1c[nH]c2ccccc12)C(=O)N[C@@H](Cc1c[nH]c2ccccc12)C(=O)N1CCC[C@H]1C(=O)N[C@@H](Cc1c[nH]c2ccccc12)C(=O)N[C@@H](CCCNC(=N)N)C(=O)N[C@@H](CCCNC(=N)N)C(=O)N[C@@H](CCCCN)C(N)=O` [Omiganan] (H-ILRWPWWPWRRK-NH2), the MIC is recorded as 5 µM (≈ 8.9 µg/mL) with S. pyogenes AP1; 20 µM (≈ 35.6 µg/mL) in test [3]; 20 µM (≈ 35.6 µg/mL) in test [4]; 160 µM (≈ 285 µg/mL) in [5]; 20 µM (≈ 35.6 µg/mL) in [6]; 20 µM (≈ 35.6 µg/mL) in test [7]. For the same molecule, the MIC came to 40 µM (≈ 71.2 µg/mL) in test [8]; 20 µM (≈ 35.6 µg/mL) in test [9]; 10 µM (≈ 17.8 µg/mL) in test [10]; 10 µM (≈ 17.8 µg/mL) in [11]; 20 µM (≈ 35.6 µg/mL) in test [12]; 5 µM (≈ 8.9 µg/mL) in test [13]. Besides, the minimum inhibitory concentration (MIC) in [14] is listed as above 160 µM; in the test on P. aeruginosa ATCC 27853 it was 160 µM (≈ 285 µg/mL); in [15] it was 40 µM (≈ 71.2 µg/mL); in the test on S. aureus FDA 486, 20 µM (≈ 35.6 µg/mL); in test [16], 40 µM (≈ 71.2 µg/mL); in test [17], 10 µM (≈ 17.8 µg/mL). Further, the MIC in [18] was found to be 20 µM (≈ 35.6 µg/mL); in [19], 80 µM (≈ 142 µg/mL); in test [20], 80 µM (≈ 142 µg/mL); in [21], 20 µM (≈ 35.6 µg/mL); in test [22], 2.5 µM (≈ 4.45 µg/mL); with S. aureus ATCC 29213, 10 µM (≈ 17.8 µg/mL). Further, the minimal inhibitory concentration (MIC) against E. coli ATCC 25922 [23] is given as 20 µM (≈ 35.6 µg/mL).
